The results in this text go back to patent publication US12239711B2, “Cereblon ligands and bifunctional compounds comprising the same” (Arvinas Operations, Inc., priority 2014, dated 2025).

Some results are limits rather than exact numbers.

Assay [1] relates to estrogen responsive element/promoter/luciferase reporter gene. Nature of the assay: ERE Luciferase Assay in T47D-KBluc cells. Format: cell-based, human. The note with it: Homo sapiens, 24 hours, luciferase activity, read-out: Target Engagement IC50. The method, then:
1. ERE Luciferase Assay for Compounds in Table 5.
T47D-KBluc cells (ATCC® #CRL_2865, T47D human breast cancer cells stably transfected with estrogen responsive element/promoter/luciferase reporter gene) were seeded into 96-well white opaque plates in RPMI growth medium supplemented with 10% fetal bovine serum (FBS) and allowed to adhere overnight in a 37° C. humidified incubator. The following day, cells were treated with PROTACs in a 12-point concentration curve (top final concentration of 300 nM with subsequent concentrations being 3-fold less with 2 pM being the lowest concentration in the assay). Each PROTAC was tested independently in two experiments on 96-well plates. After 24 hours, media was removed and lysis buffer was added to the wells. Following lysis, Bright-Glo™ Luciferase Assay Substrate (Promega, Madison WI) was added and the luciferase activity was measured using a Cytation 3 plate reader (BioTek™, Winooski, VT). Each compound was assayed in duplicate and the activity was calculated as IC50 using GraphPad Prism software (San Diego, CA).

For assay [2], the target named is T1, Estrogen Receptor-Alpha (ERα) (Homo sapiens, UniProt P03372).
T1 construct: endogenous in cells; host or cells: MCF-7 (MCF7) cells
T1 sequence (P03372 1-595): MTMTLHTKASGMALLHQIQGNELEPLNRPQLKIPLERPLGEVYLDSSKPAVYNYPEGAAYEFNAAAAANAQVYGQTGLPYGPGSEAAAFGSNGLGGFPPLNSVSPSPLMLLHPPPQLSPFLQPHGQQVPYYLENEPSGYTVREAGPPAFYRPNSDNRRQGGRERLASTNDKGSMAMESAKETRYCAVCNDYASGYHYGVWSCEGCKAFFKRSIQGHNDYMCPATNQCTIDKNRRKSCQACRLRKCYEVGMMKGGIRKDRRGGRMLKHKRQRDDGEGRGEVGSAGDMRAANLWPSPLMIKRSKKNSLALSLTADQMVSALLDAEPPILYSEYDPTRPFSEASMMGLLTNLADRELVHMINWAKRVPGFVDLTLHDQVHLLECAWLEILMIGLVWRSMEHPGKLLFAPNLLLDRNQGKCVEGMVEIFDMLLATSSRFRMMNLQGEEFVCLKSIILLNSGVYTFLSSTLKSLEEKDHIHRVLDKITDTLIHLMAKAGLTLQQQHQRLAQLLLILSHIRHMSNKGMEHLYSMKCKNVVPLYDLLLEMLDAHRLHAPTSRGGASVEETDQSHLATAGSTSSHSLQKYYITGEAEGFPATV
Briefly: Estrogen Receptor-Alpha (ERα) degradation assay in MCF-7 cells (western blot / In-Cell Western). Format: cell-based. The following applies: for Dmax: MCF7, read-out: ER Dmax; for DC50: read-out: ER DC50. The method, then: 2. Estrogen Receptor-Alpha (ERα) Degradation Assay in MCF-7 Cells Using Western Blot Method for Table 5.
The exemplary novel ERα degraders were assessed for their activity in degrading ERα in MCF-7 cells via western blot. The assay was carried out in the presence of 10% FBS or high percentage of human or mouse serum. Protocols of the western blot assay are described below.
MCF7 cells were grown in DMEM/F12 with 10% FBS and seeded at 24,000 cells per well in 100 μl into 96-well clear tissue culture plates. The following day, the cells were treated with PROTACs in a […] concentration curve with 100 nM being the top concentration and serial dilutions to make the other concentrations (30 nM, 10 nM, 3 nM, 1 nM, and 0.3 nM). At all concentrations, 0.01% DMSO is the final concentration in the well. The following day, the plates are aspirated, washed with 50 μl of cold PBS. The cells are lysed with 50 μl/well 4° C. Cell Lysis Buffer (Catalog #9803; Cell Signaling Technology, Danvers, MA) (20 mM Tris-HCL (pH 7.5), 150 mM NaCl, 1 mM Na2EDTA, 1 mM EGTA, 1% Triton, 2.5 mM sodium pyrophosphate, 1 mM B-glycerophosphate, 1 mM sodium vanadate, 1 ug/ml leupeptin). Lysates were clarified at 16,000×g for 10 minutes, and 2 μg of protein was subjected to SDS-PAGE analysis and followed by immunoblotting according to standard protocols. The antibodies used were ERα (Cell Signaling Technologies Catalog #8644), and Tubulin (Sigma Catalog #T9026; St. Louis, MO). Detection reagents were Clarity Western ECL substrate (Bio-Rad Catalog #170-5060; Hercules, CA).
Alternatively, MCF7 cells were grown in DMEM/F12 with 10% FBS and seeded at 24,000 cells per well in 500 μl in 24-well clear tissue culture plates. The following day, the cells were treated with PROTACs in a 5-point concentration curve (100 nM, 33 nM, 11 nM, 3.7 nM, and 1.2 nM) in the presence of 0.01% DMSO. After 72 hours, the wells are aspirated and washed with 500 μl of PBS. The cells are lysed with 100 μl/well 4° C. Cell Lysis Buffer (Catalog #9803; Cell Signaling Technology, Danvers, MA) (20 mM Tris-HCL (pH 7.5), 150 mM NaCl, 1 mM Na2EDTA, 1 mM EGTA, 1% Triton, 2.5 mM sodium pyrophosphate, 1 mM B-glycerophosphate, 1 mM sodium vanadate, 1 ug/ml leupeptin). Lysates were clarified at 16,000×g for 10 minutes, and 2 μg of protein was subjected to SDS-PAGE analysis and followed by immunoblotting according to standard protocols. The antibodies used were ERα (Cell Signaling Technologies Catalog #8644), and Tubulin (Sigma Catalog #T9026; St. Louis, MO). Detection reagents were Clarity Western ECL substrate (Bio-Rad Catalog #170-5060; Hercules, CA).
3. Estrogen Receptor-Alpha (ERα) Degradation Assay Using In-Cell Western™ Assay for Table 5.
Degradation of ERα by claimed compounds were determined in MCF7 cells using an In-Cell Western™ assay. Briefly, MCF7 cells were plated in 96-well plates (2000 cells per well in 100 μl media) and incubated at 37° C. under an atmosphere of 5% CO2 in a humidified incubator overnight. One-hundred (100) μl of media containing test compound (at 2× concentration) was added to the appropriate wells to provide 11 serially decreasing concentrations (top final concentration, 1 μM then 3-fold less for the next 10 concentrations); a vehicle control (DMSO) was also added for each compound. For each experiment, all compounds were assayed in duplicate plates. Cells were then incubated for 3 or 5 days in the above-mentioned environment. The assay was terminated by removal of media, a single wash with ice-cold PBS and the addition of 50 μl paraformaldehyde (PFA: 4% in PBS). After 15 minutes in PFA at room temperature, the cells were permeabilized in Tris-phosphate-buffered saline with Tween (0.1%) (TBST) supplemented with Triton X-100 (0.5%) for 15 minutes. Cells were then blocked in BSA (TBST with BSA, 3%) for one hour. […]
(In western blotting, separated proteins are transferred to a membrane and probed.)

For the molecule `O=C1CCC(N2Cc3cc(N4CCN(CCCC(F)(F)COc5ccc([C@@H]6c7ccc(O)cc7CC[C@@H]6c6ccccc6)cc5)CC4)cc(OC(F)F)c3C2=O)C(=O)N1` (stereo partly drawn) [compound 21, 3-[5-[4-[4,4-difluoro-5-[4-[(1R,2S)-6-hydroxy-2-phenyl-tetralin-1-yl]phenoxy]pentyl]piperazin-1-yl]-7-(difluoromethoxy)-1-oxo-isoindolin-2-yl]piperidine-2,6-dione], the IC50 in assay [1] stood at 2.5 nM. In assay [2], the Dmax was in the range of 50 to 75% and the DC50 lay within 1 to 10 nM.
Turning to `O=C1CCC(N2Cc3cc(N4CCN(CCC5CCN(c6ccc([C@@H]7c8ccc(O)cc8CC[C@@H]7c7ccccc7)cc6)CC5)CC4)cc(OC(F)F)c3C2=O)C(=O)N1` (stereo partly drawn) [compound 22, 3-[7-(difluoromethoxy)-5-[4-[2-[1-[4-[(1R,2S)-6-hydroxy-2-phenyl-tetralin-1-yl]phenyl]-4-piperidyl]ethyl]piperazin-1-yl]-1-oxo-isoindolin-2-yl]piperidine-2,6-dione], the IC50 in assay [1] came to 4.4 nM. Besides, in assay [2], the Dmax is no less than 75% and the DC50 fell in the range of 1 to 10 nM.
Consider `O=C1CCC(N2Cc3cc(N4CCN(CCC5CC(Oc6ccc([C@@H]7c8ccc(O)cc8CC[C@@H]7c7ccccc7)cc6)C5)CC4)cc(OC(F)F)c3C2=O)C(=O)N1` (stereo partly drawn) [compound 23, 3-[7-(difluoromethoxy)-5-[4-[2-[3-[4-[(1R,2S)-6-hydroxy-2-phenyl-tetralin-1-yl]phenoxy]cyclobutyl]ethyl]piperazin-1-yl]-1-oxo-isoindolin-2-yl]piperidine-2,6-dione], for which, in assay [1], the IC50 is 1.8 nM. For the same molecule, in assay [2], the Dmax fell in the range of 50 to 75% and the DC50 was in the range of 1 to 10 nM.
Regarding `COc1cc(N2CCN(CCC3CCN(c4ccc([C@@H]5c6ccc(O)cc6CC[C@@H]5c5ccccc5)cc4F)CC3)CC2)cc2c1C(=O)N(C1CCC(=O)NC1=O)C2` (stereo partly drawn) [compound 24, 3-[5-[4-[2-[1-[2-fluoro-4-[(1R,2S)-6-hydroxy-2-phenyl-tetralin-1-yl]phenyl]-4-piperidyl]ethyl]piperazin-1-yl]-7-methoxy-1-oxo-isoindolin-2-yl]piperidine-2,6-dione], the IC50 in assay [1] is 0.7 nM. For the same molecule, in assay [2], the greatest degradation seen (Dmax) was no less than 75% and the DC50 is 1 to 10 nM.
On to `O=C1CCC(n2nc3cc(N4CCN(CCCCCOc5ccc([C@@H]6c7ccc(O)cc7CC[C@@H]6c6ccccc6)cc5)CC4)ccn3c2=O)C(=O)N1` (stereo partly drawn) [compound 25, 3-{7-[4-(5-{4-[(1R,2S)-6-hydroxy-2-phenyl-1,2,3,4-tetrahydronaphthalen-1-yl]phenoxy}pentyl)piperazin-1-yl]-3-oxo-2H,3H-[1,2,4]triazolo[4,3-a]pyridin-2-yl}piperidine-2,6-dione], for which the IC50 in assay [1] stood at 0.5 nM. Also, the Dmax in assay [2] was less than 50%.
`COc1cc(N2CCN(CC(=O)C3CC(Oc4ccc([C@@H]5c6ccc(O)cc6CC[C@@H]5c5ccccc5)cc4)C3)CC2)cc2c1C(=O)N(C1CCC(=O)NC1=O)C2` (stereo partly drawn) [compound 26, 3-[5-[4-[2-[3-[4-[(1R,2S)-6-hydroxy-2-phenyl-tetralin-1-yl]phenoxy]cyclobutyl]-2-oxo-ethyl]piperazin-1-yl]-7-methoxy-1-oxo-isoindolin-2-yl]piperidine-2,6-dione]: the IC50 in assay [1] amounted to 0.7 nM. Besides, in assay [2], the Dmax was no less than 75% and the DC50 is less than 1 nM.
In the case of `O=C1CCC(N2Cc3cc(N4CCN(CCC5(O)CC(Oc6ccc([C@@H]7c8ccc(O)cc8CC[C@@H]7c7ccccc7)cc6)C5)CC4)cc(OC(F)F)c3C2=O)C(=O)N1` (stereo partly drawn) [compound 27, 3-[7-(difluoromethoxy)-5-[4-[2-[1-hydroxy-3-[4-[(1R,2S)-6-hydroxy-2-phenyl-tetralin-1-yl]phenoxy]cyclobutyl]ethyl]piperazin-1-yl]-1-oxo-isoindolin-2-yl]piperidine-2,6-dione], in assay [1], the IC50 is 0.5 nM. In addition, in assay [2], the Dmax lay in the range of 50 to 75% and the DC50 was less than 1 nM.
For `COc1cc(N2CCN(CCC3(O)CC(Oc4ccc([C@@H]5c6ccc(O)cc6CC[C@@H]5c5ccccc5)cc4)C3)CC2)cc2c1C(=O)N(C1CCC(=O)NC1=O)C2` (stereo partly drawn) [compound 28, 3-[5-[4-[2-[1-hydroxy-3-[4-[(1R,2S)-6-hydroxy-2-phenyl-tetralin-1-yl]phenoxy]cyclobutyl]ethyl]piperazin-1-yl]-7-methoxy-1-oxo-isoindolin-2-yl]piperidine-2,6-dione], the IC50 in assay [1] was determined as 0.3 nM. In addition, in assay [2], the Dmax was no less than 75% and the DC50 was less than 1 nM.
Turning to `O=C1CCC(N2C(=O)c3ccc(N4CCN(CC5CCN(c6ccc([C@@H]7c8ccc(O)cc8CC[C@@H]7c7ccccc7)cc6)CC5)CC4)cc3C23CC3)C(=O)N1` (stereo partly drawn) [compound 29, 3-(6′-{4-[(1-{4-[(1R,2S)-6-hydroxy-2-phenyl-1,2,3,4-tetrahydronaphthalen-1-yl]phenyl}piperidin-4-yl)methyl]piperazin-1-yl}-3′-oxo-2′,3′-dihydrospiro[cyclopropane-1,1′-isoindole]-2′-yl)piperidine-2,6-dione], in assay [1], the IC50 is 2.4 nM. Besides, the Dmax in assay [2] is less than 50%.
For `O=C1CCC(N2C(=O)c3ccc(N4CCN(CC5CCN(c6ccc([C@@H]7c8ccc(O)cc8CC[C@@H]7c7ccccc7)cc6F)CC5)CC4)cc3C23CC3)C(=O)N1` (stereo partly drawn) [compound 30, 3-[6′-[4-[[1-[2-fluoro-4-[(1R,2S)-6-hydroxy-2-phenyl-tetralin-1-yl]phenyl]-4-piperidyl]methyl]piperazin-1-yl]-3′-oxo-spiro[cyclopropane-1,1′-isoindoline]-2′-yl]piperidine-2,6-dione], in assay [1], the IC50 was found to be 2.1 nM. For the same molecule, in assay [2], the Dmax lay within 50 to 75% and the DC50 lay in the range of 1 to 10 nM.

One may read the IC50 as the concentration that inhibits the measured activity by half. Broadly, the Dmax is the largest share of the target that was removed. Broadly, the DC50 is the concentration giving 50% degradation.
